Source: patent publication US20160175318A1, “COMPOSITIONS COMPRISING ANTIBACTERIAL AGENT AND TAZOBACTAM” (WOCKHARDT LIMITED, priority 2013, published 2016)
Where two headings read alike, the source gives them in different places.

Tests used:
Format in all cases: cell-based
E. coli M-138 = assay: Quantitative drug diffusion assay (disc, zone of inhibition, CLSI); parameters: key to Interpretation of zone as per CLSI recommendations: R: Resistant; I: Intermediate; S: Sensitive (Interpretation as per CLSI recommendations, 2010)
Excerpt: (§1) Activity of cefepime in combination with tazobactam and various penicillins in combination with respective ESBL inhibitors was also investigated against highly resistant ESBL strains in quantitative drug diffusion assay performed as per CLSI recommendations (Clinical and Laboratory Standards Institute (CLSI), performance Standards for Antimicrobial Susceptibility Testing, 20th Informational Supplement, M 100-S20, Volume 30, No. 1, 2010).
(§2) In a typical study, overnight grown bacterial cultures after appropriate dilution were seed inoculated in the molten, cooled agar media and plates poured. Antibiotics containing 6 mm diameter discs were place on the top of the agar surface. Zone of inhibition based observation was performed after 16-18 h of incubation at 35±2° C. in ambient air. The overall procedure was performed as per CLSI recommendations (Table 5 and 6). These assays are routinely used in determining possibility of treating a particular infection using antibiotic and/or their combinations. For example, in case of treating an infection caused by E. coli (M138) using Augmentin® [commercially available combination: Amoxicillin (500 mg)+Clavulanic acid (125 mg)], the zone inhibition values need to be in the sensitive (S) range.

E. coli M50 [1] = assay: as above; parameters: key to Interpretation of zone as per CLSI recommendations: R: Resistant; I: Intermediate; S: Sensitive (Interpretation as per CLSI recommendations, 2010)
Excerpt: as §1, §2

E. coli 7MP [2] = assay: as above; parameters: key to Interpretation of zone as per CLSI recommendations: R: Resistant; I: Intermediate; S: Sensitive (Interpretation as per CLSI recommendations, 2010)
Excerpt: as §1, §2

E. coli S-112 = assay: as above; parameters: key to Interpretation of zone as per CLSI recommendations: R: Resistant; I: Intermediate; S: Sensitive (Interpretation as per CLSI recommendations, 2010)
Excerpt: as §1, §2

E. coli B-89 [3] = assay: as above; parameters: key to Interpretation of zone as per CLSI recommendations: R: Resistant; I: Intermediate; S: Sensitive (Interpretation as per CLSI recommendations, 2010)
Excerpt: as §1, §2

E. coli B-123 = assay: as above; parameters: key to Interpretation of zone as per CLSI recommendations: R: Resistant; I: Intermediate; S: Sensitive (Interpretation as per CLSI recommendations, 2010)
Excerpt: as §1, §2

K. pneumoniae M150 = assay: MIC by agar dilution (CLSI) against highly resistant ESBL strain; settings: Klebsiella pneumoniae, M150, K. pneumoniae M150, read-out: MIC
Description: (§3) The results on activity of cefepime and other cephalosporin antibacterial agents in combination with tazobactam against highly resistant ESBL strains are given Table 1. In a typical study, overnight grown bacterial cultures were diluted appropriately and inoculated on the agar media containing doubling dilutions of the antibiotic. Observation for growth or no growth was performed after 16-20 h of incubation at 35±2° C. in ambient air. The overall procedure was performed as per Clinical and Laboratory Standards Institute (CLSI) recommendations. This experimental was followed for Examples 2-4 and 6 below (Table 2-4 and 7).

E. coli M50 [4] = assay: as above
Description: as §3

E. coli 7MP [5] = assay: as above; settings: E. coli 7MP
Description: as §3

E. cloacae M-20 = assay: as above; settings: E. cloacae M-20
Description: as §3

E. coli B-89 [6] = assay: as above; settings: E. coli B-89
Description: as §3

[7] = ESBL inhibitor 0 mcg (antibiotic alone)
[8] = Tazobactam 0 mcg (antibiotic alone)
[9] = Escherichia coli, 20 h, Tazobactam 0 mcg (antibiotic alone), read-out: MIC
[10] = Escherichia coli, 7MP, 20 h, Tazobactam 0 mcg (antibiotic alone), read-out: MIC
[11] = Enterobacter cloacae, M20, 20 h, Tazobactam 0 mcg (antibiotic alone), read-out: MIC
[12] = Escherichia coli, B89, 20 h, Tazobactam 0 mcg (antibiotic alone), read-out: MIC
[13] = Table 5, with Tazobactam 10 mcg
[14] = Table 6, with Tazobactam 10 mcg

CC1(C)S[C@@H]2[C@H](NC(=O)[C@H](N)c3ccccc3)C(=O)N2[C@H]1C(=O)O [Ampicillin]
Zone of Inhibition (E. coli M-138; [7]): Nil
Interpretation of zone as per CLSI recommendations (E. coli M-138; Table 5, ESBL inhibitor 0 mcg): (R)
Interpretation of zone as per CLSI recommendations (E. coli M-138; Table 5, with Sulbactam 10 mcg): (R)
Interpretation of zone as per CLSI recommendations (E. coli M-138; Table 6, ESBL inhibitor 0 mcg): (R)
Interpretation of zone as per CLSI recommendations (E. coli M-138; Table 6, with Sulbactam 10 mcg): (R)
Zone of Inhibition (E. coli M-138; with Sulbactam 10 mcg): Nil
Zone of Inhibition (E. coli M50 [1]; [7]): Nil
Interpretation of zone as per CLSI recommendations (E. coli M50 [1]; Table 5, ESBL inhibitor 0 mcg): (R)
Interpretation of zone as per CLSI recommendations (E. coli M50 [1]; Table 5, with Sulbactam 10 mcg): (R)
Interpretation of zone as per CLSI recommendations (E. coli M50 [1]; Table 6, ESBL inhibitor 0 mcg): (R)
Interpretation of zone as per CLSI recommendations (E. coli M50 [1]; Table 6, with Sulbactam 10 mcg): (R)
Zone of Inhibition (E. coli M50 [1]; with Sulbactam 10 mcg): Nil
Zone of Inhibition (E. coli 7MP [2]; [7]): Nil
Interpretation of zone as per CLSI recommendations (E. coli 7MP [2]; Table 5, ESBL inhibitor 0 mcg): (R)
Interpretation of zone as per CLSI recommendations (E. coli 7MP [2]; Table 5, with Sulbactam 10 mcg): (R)
Interpretation of zone as per CLSI recommendations (E. coli 7MP [2]; Table 6, ESBL inhibitor 0 mcg): (R)
Interpretation of zone as per CLSI recommendations (E. coli 7MP [2]; Table 6, with Sulbactam 10 mcg): (R)
Zone of Inhibition (E. coli 7MP [2]; with Sulbactam 10 mcg): Nil
Zone of Inhibition (E. coli S-112; [7]): Nil
Interpretation of zone as per CLSI recommendations (E. coli S-112; Table 5, ESBL inhibitor 0 mcg): (R)
Interpretation of zone as per CLSI recommendations (E. coli S-112; Table 5, with Sulbactam 10 mcg): (R)
Interpretation of zone as per CLSI recommendations (E. coli S-112; Table 6, ESBL inhibitor 0 mcg): (R)
Interpretation of zone as per CLSI recommendations (E. coli S-112; Table 6, with Sulbactam 10 mcg): (R)
Zone of Inhibition (E. coli S-112; with Sulbactam 10 mcg): Nil
Zone of Inhibition (E. coli B-89 [3]; [7]): Nil
Interpretation of zone as per CLSI recommendations (E. coli B-89 [3]; Table 5, ESBL inhibitor 0 mcg): (R)
Interpretation of zone as per CLSI recommendations (E. coli B-89 [3]; Table 5, with Sulbactam 10 mcg): (R)
Interpretation of zone as per CLSI recommendations (E. coli B-89 [3]; Table 6, ESBL inhibitor 0 mcg): (R)
Interpretation of zone as per CLSI recommendations (E. coli B-89 [3]; Table 6, with Sulbactam 10 mcg): (R)
Zone of Inhibition (E. coli B-89 [3]; with Sulbactam 10 mcg): Nil
Zone of Inhibition (E. coli B-123; [7]): Nil
Interpretation of zone as per CLSI recommendations (E. coli B-123; Table 5, ESBL inhibitor 0 mcg): (R)
Interpretation of zone as per CLSI recommendations (E. coli B-123; Table 5, with Sulbactam 10 mcg): (R)
Interpretation of zone as per CLSI recommendations (E. coli B-123; Table 6, ESBL inhibitor 0 mcg): (R)
Interpretation of zone as per CLSI recommendations (E. coli B-123; Table 6, with Sulbactam 10 mcg): (R)
Zone of Inhibition (E. coli B-123; with Sulbactam 10 mcg): Nil
MIC (K. pneumoniae M150; [8]): > 128 µg/mL
MIC (K. pneumoniae M150; with Tazobactam 4 mcg): > 64 µg/mL
MIC (K. pneumoniae M150; with Tazobactam 8 mcg): > 64 µg/mL
MIC (E. coli M50 [4]; [9]): > 128 µg/mL
MIC (E. coli M50 [4]; with Tazobactam 4 mcg): >64 µg/mL
MIC (E. coli M50 [4]; with Tazobactam 8 mcg): >64 µg/mL
MIC (E. coli 7MP [5]; with Tazobactam 4 mcg): >64 µg/mL
MIC (E. coli 7MP [5]; with Tazobactam 8 mcg): >64 µg/mL
MIC (E. coli 7MP [5]; [10]): > 128 µg/mL
MIC (E. cloacae M-20; with Tazobactam 4 mcg): >64 µg/mL
MIC (E. cloacae M-20; with Tazobactam 8 mcg): >64 µg/mL
MIC (E. cloacae M-20; [11]): > 128 µg/mL
MIC (E. coli B-89 [6]; with Tazobactam 4 mcg): >64 µg/mL
MIC (E. coli B-89 [6]; with Tazobactam 8 mcg): >64 µg/mL
MIC (E. coli B-89 [6]; [12]): > 128 µg/mL

CCN1CCN(C(=O)N[C@@H](C(=O)N[C@@H]2C(=O)N3[C@@H]2SC(C)(C)[C@@H]3C(=O)O)c2ccccc2)C(=O)C1=O [Piperacillin]
Zone of Inhibition (E. coli M-138; [7]): Nil
Interpretation of zone as per CLSI recommendations (E. coli M-138; Table 5, ESBL inhibitor 0 mcg): (R)
Interpretation of zone as per CLSI recommendations (E. coli M-138; [13]): (R)
Interpretation of zone as per CLSI recommendations (E. coli M-138; Table 6, ESBL inhibitor 0 mcg): (R)
Interpretation of zone as per CLSI recommendations (E. coli M-138; [14]): (R)
Zone of Inhibition (E. coli M-138; with Tazobactam 10 mcg): 15.5 mm
Zone of Inhibition (E. coli M50 [1]; [7]): Nil
Interpretation of zone as per CLSI recommendations (E. coli M50 [1]; Table 5, ESBL inhibitor 0 mcg): (R)
Interpretation of zone as per CLSI recommendations (E. coli M50 [1]; [13]): (R)
Interpretation of zone as per CLSI recommendations (E. coli M50 [1]; Table 6, ESBL inhibitor 0 mcg): (R)
Interpretation of zone as per CLSI recommendations (E. coli M50 [1]; [14]): (R)
Zone of Inhibition (E. coli M50 [1]; with Tazobactam 10 mcg): 17 mm
Zone of Inhibition (E. coli 7MP [2]; [7]): Nil
Interpretation of zone as per CLSI recommendations (E. coli 7MP [2]; Table 5, ESBL inhibitor 0 mcg): (R)
Interpretation of zone as per CLSI recommendations (E. coli 7MP [2]; [13]): (R)
Interpretation of zone as per CLSI recommendations (E. coli 7MP [2]; Table 6, ESBL inhibitor 0 mcg): (R)
Interpretation of zone as per CLSI recommendations (E. coli 7MP [2]; [14]): (R)
Zone of Inhibition (E. coli 7MP [2]; with Tazobactam 10 mcg): 13.5 mm
Zone of Inhibition (E. coli S-112; [7]): Nil
Interpretation of zone as per CLSI recommendations (E. coli S-112; Table 5, ESBL inhibitor 0 mcg): (R)
Interpretation of zone as per CLSI recommendations (E. coli S-112; [13]): (R)
Interpretation of zone as per CLSI recommendations (E. coli S-112; Table 6, ESBL inhibitor 0 mcg): (R)
Interpretation of zone as per CLSI recommendations (E. coli S-112; [14]): (R)
Zone of Inhibition (E. coli S-112; with Tazobactam 10 mcg): 14 mm
Zone of Inhibition (E. coli B-89 [3]; [7]): Nil
Interpretation of zone as per CLSI recommendations (E. coli B-89 [3]; Table 5, ESBL inhibitor 0 mcg): (R)
Interpretation of zone as per CLSI recommendations (E. coli B-89 [3]; [13]): (R)
Interpretation of zone as per CLSI recommendations (E. coli B-89 [3]; Table 6, ESBL inhibitor 0 mcg): (R)
Interpretation of zone as per CLSI recommendations (E. coli B-89 [3]; [14]): (R)
Zone of Inhibition (E. coli B-89 [3]; with Tazobactam 10 mcg): 15 mm
Zone of Inhibition (E. coli B-123; [7]): Nil
Interpretation of zone as per CLSI recommendations (E. coli B-123; Table 5, ESBL inhibitor 0 mcg): (R)
Interpretation of zone as per CLSI recommendations (E. coli B-123; [13]): (R)
Interpretation of zone as per CLSI recommendations (E. coli B-123; Table 6, ESBL inhibitor 0 mcg): (R)
Interpretation of zone as per CLSI recommendations (E. coli B-123; [14]): (R)
Zone of Inhibition (E. coli B-123; with Tazobactam 10 mcg): 13.5 mm
MIC (K. pneumoniae M150; [8]): > 128 µg/mL
MIC (K. pneumoniae M150; with Tazobactam 4 mcg): > 64 µg/mL
MIC (K. pneumoniae M150; with Tazobactam 8 mcg): > 64 µg/mL
MIC (E. coli M50 [4]; [9]): > 128 µg/mL
MIC (E. coli M50 [4]; with Tazobactam 4 mcg): >64 µg/mL
MIC (E. coli M50 [4]; with Tazobactam 8 mcg): >64 µg/mL
MIC (E. coli 7MP [5]; with Tazobactam 4 mcg): >64 µg/mL
MIC (E. coli 7MP [5]; with Tazobactam 8 mcg): >64 µg/mL
MIC (E. coli 7MP [5]; [10]): > 128 µg/mL
MIC (E. cloacae M-20; with Tazobactam 4 mcg): >64 µg/mL
MIC (E. cloacae M-20; with Tazobactam 8 mcg): >64 µg/mL
MIC (E. cloacae M-20; [11]): > 128 µg/mL
MIC (E. coli B-89 [6]; with Tazobactam 4 mcg): >64 µg/mL
MIC (E. coli B-89 [6]; with Tazobactam 8 mcg): >64 µg/mL
MIC (E. coli B-89 [6]; [12]): > 128 µg/mL
